Values of other authors as cited in patent US20100267960A1, “PROCESS FOR PREPARING PRAMIPEXOLE DIHYDROCHLORIDE TABLETS” (Boehringer Ingelheim Pharma GmbH & Co. KG, priority 2006, published 2010).
Structures can show the parent of a compound that is named as a salt.

Legend:
[1] = not given; remark: listed apart in the source

light sensitivity in solution (in solution)	stability in the solid state (solid state)	hygroscopicity (solid)	solubility in buffer media ([1]; buffer media, between pH 2 and pH 7.4)	Water solubility ([1]; water)	Compound
light sensitive	very stable	–	–	–	CCCN[C@H]1CCc2nc(N)sc2C1 [Pramipexole, (S)-2-amino-4,5,6,7-tetrahydro-6-(propylamino)benzothiazole]
–	–	not hygroscopic	above 10 mg/mL	more than 20 mg/mL	CCCN[C@H]1CCc2nc(N)sc2C1 [Pramipexole dihydrochloride monohydrate, pramipexole dihydrochloride monohydrate]
